According to ChEMBL document CHEMBL3739270 (Medchemcomm, 2015):

Columns and labels:
Format in all cases: cell-based
[1] = target: T1, Melatonin receptor type 1B (Homo sapiens, UniProt P49286); test: Displacement of 2-[125I]-iodomelatonin from human melatonin receptor MT2 expressed in CHO cells after 1 hr by gamma counting analysis
T1 sequence (P49286 whole entry): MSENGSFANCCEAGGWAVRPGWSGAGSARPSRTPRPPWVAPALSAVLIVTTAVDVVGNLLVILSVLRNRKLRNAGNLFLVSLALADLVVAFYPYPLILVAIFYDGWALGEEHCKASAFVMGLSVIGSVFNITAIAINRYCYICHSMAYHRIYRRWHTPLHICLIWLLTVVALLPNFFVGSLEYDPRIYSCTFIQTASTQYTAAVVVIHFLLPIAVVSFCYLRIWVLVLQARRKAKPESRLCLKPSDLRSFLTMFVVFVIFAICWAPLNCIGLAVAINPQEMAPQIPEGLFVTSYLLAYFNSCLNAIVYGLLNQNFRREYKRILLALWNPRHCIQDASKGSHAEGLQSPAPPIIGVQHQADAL

[2] = target: Melatonin receptor type 1A (Homo sapiens, UniProt P48039); test: Displacement of 2-[125I]-iodomelatonin from human melatonin receptor MT1 expressed in CHO cells after 1 hr by gamma counting analysis
CHO = test: Selectivity ratio, ratio of Ki for human melatonin receptor MT2 to Ki for human melatonin receptor MT1 expressed in CHO cells
CHO-K1 = test: Selectivity ratio, ratio of Ki for human melatonin receptor MT2 to Ki for human melatonin receptor MT1 expressed in CHO-K1 cells
HEK293 = test: Selectivity ratio, ratio of Ki for human melatonin receptor MT2 to Ki for human melatonin receptor MT1 expressed in HEK293 cells

Sequence of Melatonin receptor type 1A (P48039 whole entry): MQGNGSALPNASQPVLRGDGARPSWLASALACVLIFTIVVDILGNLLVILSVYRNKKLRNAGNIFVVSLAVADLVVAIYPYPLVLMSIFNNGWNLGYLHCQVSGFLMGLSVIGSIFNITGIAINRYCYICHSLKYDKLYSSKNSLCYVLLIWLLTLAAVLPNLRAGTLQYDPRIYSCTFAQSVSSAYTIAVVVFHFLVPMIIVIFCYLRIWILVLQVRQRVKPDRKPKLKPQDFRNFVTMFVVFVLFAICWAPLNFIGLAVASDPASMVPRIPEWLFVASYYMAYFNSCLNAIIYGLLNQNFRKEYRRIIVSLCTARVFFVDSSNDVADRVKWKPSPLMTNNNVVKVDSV

Row | SMILES | Ki ([1]; read-out: Ki) [nM] | Ki ([2]; read-out: Ki) [nM] | also measured
1 | CC(=O)NCCc1cccc2ccc(OCCCOc3ccccc3)cc12 | 44 | 35 | –
2 | O=C(NCCCc1cccc2nc(CCCCc3ccccc3)oc12)C1CC1 | – | – | Ratio Ki (CHO-K1): 30
3 | O=C(NCCc1cccc2ccc(OCCCCOc3ccc4cccc(CCNC(=O)C(F)F)c4c3)cc12)C(F)F | 15 | 12 | –
4 | CC(=O)NCCc1cccc2ccc(OCCCCOc3ccc4cccc(CCNC(C)=O)c4c3)cc12 | – | – | Ratio Ki (HEK293): 120
5 | CC(=O)NCCc1cccc2ccc(OCCCc3ccccc3)cc12 | 9 | 9 | Ki ([1]; read-out: pKi (converted)): 21.4 nM; Ki ([2]; read-out: pKi (converted)): 25.1 nM
6 | CC(=O)NCCc1cccc2ccc(OCCCOc3ccc4cccc(CCNC(C)=O)c4c3)cc12 | – | 112 | Ki ([1]; read-out: pKi (converted)): 355 nM
7 | CCCCCCOc1ccc2c(c1)C(CCNC(C)=O)CCO2 (stereo not drawn) | – | – | Ratio Ki (CHO-K1): 30

Further compounds by falling Ki ([2]; read-out: Ki), results first:

Row | Ki ([1]; read-out: Ki) [nM] | Ki ([2]; read-out: Ki) [nM] | SMILES | also measured
8 | 9 | 9 | CC(=O)NCCc1cccc2ccc(OCCCCc3ccccc3)cc12 | –
9 | 7.8 | 6.2 | O=C(NCCc1c[nH]c2ccc(OCCCOc3ccccc3)cc12)C(F)F | Ratio Ki (CHO): 10
10 | 2 | 5 | COc1ccc2cccc(CCNC(=O)C(F)(F)F)c2c1 | –
11 | 2 | 5 | COc1ccc2cccc(CCNC(=O)C(Cl)Cl)c2c1 | –
12 | 8.1 | 1.2 | O=C(NCCc1cccc2ccc(OCCCOc3ccc4cccc(CCNC(=O)C(F)F)c4c3)cc12)C(F)F | Ratio Ki (CHO): 7
13 | 0.85 | 0.054 | COc1ccc2cccc(CCNC(=O)C(F)F)c2c1 | Ratio Ki (CHO): 16
